Test results as given in patent publication US20240190880A1 (THE REGENTS OF THE UNIVERSITY OF MICHIGAN, priority 2021, published 2024).

These molecules were tested against T1, ER (Homo sapiens, UniProt P03372) (assay: ER degradation activity, in-cell western blot analysis in T47D cells). Settings: 16 hours, Table A does not say which cell line (T47D or MCF7), read-out: Potency (DC50).
T1 construct: host or cells: T47D and MCF7 human breast cancer cells
T1 sequence (P03372 1-595): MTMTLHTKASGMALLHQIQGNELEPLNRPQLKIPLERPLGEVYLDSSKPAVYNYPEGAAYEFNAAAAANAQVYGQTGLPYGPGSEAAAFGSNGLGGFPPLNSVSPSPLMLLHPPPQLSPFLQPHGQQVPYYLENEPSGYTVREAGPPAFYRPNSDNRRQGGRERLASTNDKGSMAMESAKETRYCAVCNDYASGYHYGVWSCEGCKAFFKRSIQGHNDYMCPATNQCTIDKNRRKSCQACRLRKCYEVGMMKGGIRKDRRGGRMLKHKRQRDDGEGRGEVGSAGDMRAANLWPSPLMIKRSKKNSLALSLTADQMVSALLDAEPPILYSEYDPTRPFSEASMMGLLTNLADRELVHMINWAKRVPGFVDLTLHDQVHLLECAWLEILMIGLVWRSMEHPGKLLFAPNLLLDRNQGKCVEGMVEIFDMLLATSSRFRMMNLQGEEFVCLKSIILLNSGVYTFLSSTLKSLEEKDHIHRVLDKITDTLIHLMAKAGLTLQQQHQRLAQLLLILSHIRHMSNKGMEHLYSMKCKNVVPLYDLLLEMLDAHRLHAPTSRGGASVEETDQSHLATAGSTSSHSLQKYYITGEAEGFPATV
Format: cell-based
Description: ER degradation activity was evaluated in the human breast cancer cell line T47D and MCF7 purchased from the American Type Culture Collection (ATCC), Manassas, VA, and maintained and cultured in Dulbecco's Modified Eagle's medium (DMEM) containing 10% fetal bovine serum, 1 unit/ml of penicillin and 1 μg/ml of streptomycin.
The protocol for the in-cell western blot analysis: a. seed cells in black-sided/clear bottom 96- or 384-well plates at 40,000 or 10,000 cells/well, overnight; b. add diluted compounds (final 0.5% DMSO), 16 hours. […] RT 2 h, gentle shaking. Negative control: cells plus secondary antibodies (no primary antibodies); e. wash ×4 with PBS+0.05-0.1% Tween 20, gentel shaking; f. anti-rabbit-680 and anti-mouse-800 (both 1:1000 in LiCor block+0.05% Tween20, RT 1 h, gentle shaking, no light. LI-COR: 0.2% to reduce background; g. wash×4 with PBS+0.05% Tween 20, gental shaking; h. add 100 μL or 25 μL of PBS to each well and read on CLX plate reader. The relative ER percentage in treated cells were obtained by comparing the values of treated wells to those in untreated and DMSO-treated wells as 100%.

DC50 | SMILES
10 to 100 nM | C[C@@H]1CC2(CCN(c3ccc([C@@H]4c5ccc(O)cc5CC[C@@H]4c4ccc(F)cc4)cc3)CC2)CN1C(=O)CN1Cc2cc3c(cc2C1)C(=O)N(C1CCC(=O)NC1=O)C3=O (mixture of isomers) [E 145, Rac-2-(2,6-dioxopiperidin-3-yl)-6-(2-((R)-8-(4-((1R,2S)-2-(4-fluorophenyl)-6-hydroxy-1,2,3,4-tetrahydronaphthalen-1-yl)phenyl)-3-methyl-2,8-diazaspiro[4.5]decan-2-yl)-2-oxoethyl)-6,7-dihydropyrrolo[3,4-f]isoindole-1,3(2H,5H)-dione]
> 100 nM | C[C@@H]1CC2(CCN(c3ccc([C@@H]4c5ccc(O)cc5CC[C@@H]4c4ccc(F)cc4)cc3)CC2)CN1CC(=O)N1Cc2cc3c(cc2C1)C(=O)N(C1CCC(=O)NC1=O)C3=O (mixture of isomers) [E 146, Rac-2-(2,6-dioxopiperidin-3-yl)-6-(2-((R)-8-(4-((1R,2S)-2-(4-fluorophenyl)-6-hydroxy-1,2,3,4-tetrahydronaphthalen-1-yl)phenyl)-3-methyl-2,8-diazaspiro[4.5]decan-2-yl)acetyl)-6,7-dihydropyrrolo[3,4-f]isoindole-1,3(2H,5H)-dione]
> 100 nM | C[C@H]1CC2(CCN(c3ccc([C@@H]4c5ccc(O)cc5CC[C@@H]4c4ccccc4)cc3)CC2)CN1CC(=O)N1Cc2cc3c(cc2C1)C(=O)N(C1CCC(=O)NC1=O)C3=O (mixture of isomers) [E 151, Rac-2-(2,6-dioxopiperidin-3-yl)-6-(2-((S)-8-(4-((1R,2S)-6-hydroxy-2-phenyl-1,2,3,4-tetrahydronaphthalen-1-yl)phenyl)-3-methyl-2,8-diazaspiro[4.5]decan-2-yl)acetyl)-6,7-dihydropyrrolo[3,4-f]isoindole-1,3(2H,5H)-dione]
> 100 nM | O=C1CCC(N2C(=O)c3cc4c(cc3C2=O)CN(CC(=O)N2CCC[C@H](Oc3ccc([C@@H]5c6ccc(O)cc6CC[C@@H]5c5ccc(F)cc5)cc3)C2)C4)C(=O)N1 (mixture of isomers) [E 157, Rac-2-(2,6-dioxopiperidin-3-yl)-6-(2-((S)-3-(4-((1R,2S)-2-(4-fluorophenyl)-6-hydroxy-1,2,3,4-tetrahydronaphthalen-1-yl)phenoxy)piperidin-1-yl)-2-oxoethyl)-6,7-dihydropyrrolo[3,4-f]isoindole-1,3(2H,5H)-dione]
> 100 nM | O=C1CCC(N2C(=O)c3cc4c(cc3C2=O)CN(C(=O)CN2CCC[C@H](Oc3ccc([C@@H]5c6ccc(O)cc6CC[C@@H]5c5ccc(F)cc5)cc3)C2)C4)C(=O)N1 (mixture of isomers) [E 159, Rac-2-(2,6-dioxopiperidin-3-yl)-6-(2-((S)-3-(4-((1R,2S)-2-(4-fluorophenyl)-6-hydroxy-1,2,3,4-tetrahydronaphthalen-1-yl)phenoxy)piperidin-1-yl)acetyl)-6,7-dihydropyrrolo[3,4-f]isoindole-1,3(2H,5H)-dione]

The next lines start with the molecule.

SMILES | DC50
C[C@H]1CC2(CCN(c3ccc([C@@H]4c5ccc(O)cc5CC[C@@H]4c4ccccc4)cc3)CC2)CN1C(=O)CN1Cc2cc3c(cc2C1)C(=O)N(C1CCC(=O)NC1=O)C3=O (mixture of isomers) [E 142, Rac-2-(2,6-dioxopiperidin-3-yl)-6-(2-((S)-8-(4-((1R,2S)-6-hydroxy-2-phenyl-1,2,3,4-tetrahydronaphthalen-1-yl)phenyl)-3-methyl-2,8-diazaspiro[4.5]decan-2-yl)-2-oxoethyl)-6,7-dihydropyrrolo[3,4-f]isoindole-1,3(2H,5H)-dione] | 10 to 100 nM
C[C@H]1CC2(CCN(C(=O)CN3Cc4cc5c(cc4C3)C(=O)N(C3CCC(=O)NC3=O)C5=O)CC2)CN1c1ccc([C@@H]2c3ccc(O)cc3CC[C@@H]2c2ccccc2)cc1 (mixture of isomers) [E 143, Rac-2-(2,6-dioxopiperidin-3-yl)-6-(2-((S)-2-(4-((1R,2S)-6-hydroxy-2-phenyl-1,2,3,4-tetrahydronaphthalen-1-yl)phenyl)-3-methyl-2,8-diazaspiro[4.5]decan-8-yl)-2-oxoethyl)-6,7-dihydropyrrolo[3,4-f]isoindole-1,3(2H,5H)-dione] | 10 to 100 nM
C[C@H]1CC2(CCN(CC(=O)N3Cc4cc5c(cc4C3)C(=O)N(C3CCC(=O)NC3=O)C5=O)CC2)CN1c1ccc([C@@H]2c3ccc(O)cc3CC[C@@H]2c2ccccc2)cc1 (mixture of isomers) [E 144, Rac-2-(2,6-dioxopiperidin-3-yl)-6-(2-((S)-2-(4-((1R,2S)-6-hydroxy-2-phenyl-1,2,3,4-tetrahydronaphthalen-1-yl)phenyl)-3-methyl-2,8-diazaspiro[4.5]decan-8-yl)acetyl)-6,7-dihydropyrrolo[3,4-f]isoindole-1,3(2H,5H)-dione] | > 100 nM
O=C1CCC(N2Cc3cc4c(cc3C2=O)CN(CC2CCN(c3ccc([C@@H]5c6ccc(O)cc6CC[C@@H]5c5ccccc5)cc3)CC2)C4)C(=O)N1 (mixture of isomers) [E 1, Rac-3-(6-((1-(4-((1R,2S)-6-hydroxy-2-phenyl-1,2,3,4-tetrahydronaphthalen-1-yl)phenyl)piperidin-4-yl)methyl)-1-oxo-3,5,6,7-tetrahydropyrrolo[3,4-f]isoindol-2(1H)-yl)piperidine-2,6-dione] | > 100 nM
O=C1CCC(N2C(=O)c3cc4c(cc3C2=O)CN(CC2CCN(c3ccc([C@@H]5c6ccc(O)cc6CC[C@@H]5c5ccccc5)cc3)CC2)C4)C(=O)N1 (mixture of isomers) [E 2, Rac-2-(2,6-dioxopiperidin-3-yl)-6-((1-(4-((1R,2S)-6-hydroxy-2-phenyl-1,2,3,4-tetrahydronaphthalen-1-yl)phenyl)piperidin-4-yl)methyl)-6,7-dihydropyrrolo[3,4-f]isoindole-1,3(2H,5H)-dione] | 10 to 100 nM
O=C1CCC(N2Cc3cc4c(cc3C2=O)CN(C2CCN(CC3CCN(c5ccc([C@@H]6c7ccc(O)cc7CC[C@@H]6c6ccccc6)cc5)CC3)CC2)C4)C(=O)N1 (mixture of isomers) [E 3, Rac-3-(6-(1-((1-(4-((1R,2S)-6-hydroxy-2-phenyl-1,2,3,4-tetrahydronaphthalen-1-yl)phenyl)piperidin-4-yl)methyl)piperidin-4-yl)-1-oxo-3,5,6,7-tetrahydropyrrolo[3,4-f]isoindol-2(1H)-yl)piperidine-2,6-dione] | < 10 nM
O=C1CCC(N2Cc3cc4c(cc3C2=O)CN(CC(=O)N2CCC3(CCN(c5ccc([C@@H]6c7ccc(O)cc7CC[C@@H]6c6ccccc6)cc5)CC3)C2)C4)C(=O)N1 (mixture of isomers) [E 4, rac-3-(6-(2-(8-(4-((1R,2S)-6-hydroxy-2-phenyl-1,2,3,4-tetrahydronaphthalen-1-yl)phenyl)-2,8-diazaspiro[4.5]decan-2-yl)-2-oxoethyl)-1-oxo-3,5,6,7-tetrahydropyrrolo[3,4-f]isoindol-2(1H)-yl)piperidine-2,6-dione] | 10 to 100 nM
O=C1CCC(N2Cc3cc4c(cc3C2=O)CN(CC(=O)N2CCC3(CC2)CN(c2ccc([C@@H]5c6ccc(O)cc6CC[C@@H]5c5ccccc5)cc2)C3)C4)C(=O)N1 (mixture of isomers) [E 5, rac-3-(6-(2-(2-(4-((1R,2S)-6-hydroxy-2-phenyl-1,2,3,4-tetrahydronaphthalen-1-yl)phenyl)-2,7-diazaspiro[3.5]nonan-7-yl)-2-oxoethyl)-1-oxo-3,5,6,7-tetrahydropyrrolo[3,4-f]isoindol-2(1H)-yl)piperidine-2,6-dione] | < 10 nM
O=C1CCC(N2Cc3cc4c(cc3C2=O)CN(CC(=O)N2CCC3(C2)CN(c2ccc([C@@H]5c6ccc(O)cc6CC[C@@H]5c5ccccc5)cc2)C3)C4)C(=O)N1 (mixture of isomers) [E 6, rac-3-(6-(2-(2-(4-((1R,2S)-6-hydroxy-2-phenyl-1,2,3,4-tetrahydronaphthalen-1-yl)phenyl)-2,6-diazaspiro[3.4]octan-6-yl)-2-oxoethyl)-1-oxo-3,5,6,7-tetrahydropyrrolo[3,4-f]isoindol-2(1H)-yl)piperidine-2,6-dione] | < 10 nM
O=C1CCC(N2C(=O)c3cc4c(cc3C2=O)CN(CC(=O)N2CCC3(CCN(c5ccc([C@@H]6c7ccc(O)cc7CC[C@@H]6c6ccccc6)cc5)CC3)C2)C4)C(=O)N1 (mixture of isomers) [E 7, rac-2-(2,6-dioxopiperidin-3-yl)-6-(2-(8-(4-((1R,2S)-6-hydroxy-2-phenyl-1,2,3,4-tetrahydronaphthalen-1-yl)phenyl)-2,8-diazaspiro[4.5]decan-2-yl)-2-oxoethyl)-6,7-dihydropyrrolo[3,4-f]isoindole-1,3(2H,5H)-dione] | 10 to 100 nM
